The record followed here is patent publication US20150164781A1, “Personal Care Products Containing Extracts of Chinese Lantern (Physalis alkekengi)” (Kemin Industries, Inc., priority 2013, published 2015).

The nature of this experiment: Microtiter plate DPPH antioxidant assay. The note with it: 0.05 mg/mL DPPH, five minutes at 25° C., absorbance 517 nm; from polynomial regression. The method, then:
HPLC grade reagent alcohol was obtained from Fisher Scientific, catalog number A995-4. 2,2-Diphenyl-1-picrylhydrazyl (DPPH) was from Fisher Scientific, catalog number AA4415003. Trolox was from Fisher Scientific, catalog number 05-402-25. Test material was prepared as in Example 1 (LumiSalisTM SE lot 592142P5, 592142P8 and 592142P9). Absorbance was measured using a Molecular Devices SpectraMax M5e plate reader (KH51-001) with a clear, flat-bottom 96-well plate, […] Science […] catalog number CC plate-PS-965-F-C-S. Masses were measured with a Mettler Toledo analytical balance (Model X5204). […] The controls and samples were all plated in triplicate and the average absorbance value was used for results calculations. The plate was shaken and incubated at 25° C. in the microplate reader for five minutes. The absorbance was measured at 517 nm. The sample concentrations (x-axis) are plotted against their respective relative average absorbance value (subtracted the average absorbance of the background from the average absorbance) at 517 nm (y-axis) and the best fit line (a polynomial fit) is calculated. The […] (50% inhibition) of each control and sample were calculated based on the polynomial regression line equation.
In general terms: The DPPH test is a chemical assay of radical scavenging.

With `Cc1c(C)c2c(c(C)c1O)CCC(C)(C(=O)O)O2` (stereo not shown) [trolox, Trolox], the “IC50 on DPPH assay” value is 0.0010%.
